Reference: ChEMBL document CHEMBL1158840, “Cytotoxic prenylflavonoids from Artocarpus elasticus” (2005)
Values after ≈ are worked out from the molar mass of the structure shown. Active and inactive are the calls of the source. The rule behind the calls is not given here.

Tests used:
MCF7 = assay: Cytotoxicity against human MCF7 cells by MTT assay; type: functional; conditions: for EC50: read-out: ED50 (the source's name)
HT-29 = assay: Cytotoxicity against human HT-29 cells by MTT assay; type: functional; conditions: for EC50: read-out: ED50 (the source's name)
[1] = (§1) Cytotoxicity against human Hep3B cells by MTT assay; type: functional, Hep 3B2; conditions: read-out: ED50 (the source's name)
A549 = assay: Cytotoxicity against human A549 cells by MTT assay; type: functional; conditions: for EC50: read-out: ED50 (the source's name)
Hep 3B2 = assay: as §1; type: functional

Row | Structure (SMILES) | EC50 (MCF7) [µg/mL] | EC50 (HT-29) [µg/mL] | EC50 [1] [µg/mL] | EC50 (A549) [µg/mL] | Activity (MCF7) | Activity (HT-29) | Activity (Hep 3B2) | Activity (A549)
1 | C=C(C)C1Cc2c(oc3cc(O)cc(O)c3c2=O)-c2c(O)c3c(c(O)c21)OC(C)(C)C=C3 (stereo not given) [ARTELASTOXANTHONE] | 3.1 (≈ 7.14 µM) | 3.9 (≈ 8.98 µM) | 3.2 (≈ 7.37 µM) | 10 (≈ 23 µM) | – | – | – | –
2 | CC(C)=CCC/C(C)=C/Cc1c2c(c3oc4c(c(=O)c3c1O)CC1c3c(c(O)cc(O)c3-4)OC1(C)C)C=CC(C)(C)O2 (stereo not given) | – | – | – | – | inactive | inactive | inactive | inactive
3 | CC1(C)C=Cc2c(cc(O)c3c(=O)c4c(oc23)-c2c(O)cc(O)c3c2C(C4)C(C)(C)O3)O1 (stereo not given) | – | – | – | – | inactive | inactive | inactive | inactive
4 | CC(C)=CCc1c2c(c(O)c3c(=O)c(C(O)C=C(C)C)c(-c4cc(O)c(O)cc4O)oc13)C=CC(C)(C)O2 (stereo not given) | – | – | – | – | inactive | inactive | inactive | inactive
5 | O=c1[nH]cc(F)c(=O)[nH]1 [FLUOROURACIL] | 0.2 (≈ 1.54 µM) | 0.2 (≈ 1.54 µM) | 0.6 (≈ 4.61 µM) | 0.4 (≈ 3.08 µM) | – | – | – | –
6 | COc1cc(O)c(-c2oc3c(CC=C(C)C)c(O)cc(O)c3c(=O)c2C(O)C=C(C)C)cc1O (stereo not given) | – | – | – | – | inactive | inactive | inactive | inactive
7 | CC(=O)C1c2oc3c4c(cc(O)c3c(=O)c2CC2C1C(=O)OC2(C)C)OC(C)(C)C=C4 (stereo not given) | – | – | – | – | inactive | inactive | inactive | inactive
8 | C=C(C)C1Cc2c(oc3c(CC=C(C)C)c4c(c(O)c3c2=O)C=CC(C)(C)O4)-c2c(O)cc(O)c(O)c21 (stereo not given) | – | – | – | – | inactive | inactive | inactive | inactive
9 | COc1cc(O)c2c3c1-c1oc4c(/C=C(\O)C(C)(C)O)c(O)cc(O)c4c(=O)c1C[C@@H]3C(C)(C)O2 | – | – | – | – | inactive | inactive | inactive | inactive
10 | C=C(C)C1CC(=O)c2oc3c4c(cc(O)c3c(=O)c2C1)OC(C)(C)C=C4 (stereo not given) [ARTONOL A] | 2.7 (≈ 7.66 µM) | 3.1 (≈ 8.8 µM) | 21.9 (≈ 62.1 µM) | 1.1 (≈ 3.12 µM) | – | – | – | –
